# Experimental data from PubChem BioAssay AID489035 (Sanford-Burnham Center for Chemical Genomics, 2010).
# Active and inactive are the calls of the source. The rule behind the calls is not given here.
# Tested on: Jurkat NF-kB reporter, TCR-induced, luciferase luminescence
# Test: T-cell NF-kB luciferase reporter inhibition – Jurkat cells, luminescence, dose response (AID 489035)
row,SMILES,IC50
1,CC#CC(=O)N1CCC(n2nccc2NC(=O)c2ccc3c(c2)OCO3)CC1,> 80 µM (inactive)
2,Cc1ccc(Nc2cc(C)nn2-c2nc(C)cc(=O)[nH]2)cc1,0.92 µM
3,CCCCCCCCn1c2c(c(=N)c3c1CCC3)CCCC2,4.63 µM
4,O=C(NN=Cc1c(O)ccc2ccccc12)c1ccc2c(c1)OCO2,26.6 µM (inactive)
5,CCO[C@@H]1OC(C(=O)NCc2nc3ccccc3[nH]2)=C[C@H](C(C)(C)C)[C@H]1CCCO,> 80 µM (inactive)
6,CCN1C/C(=C/c2ccc(OC)c(O)c2)C(=O)/C(=C/c2ccc(OC)c(O)c2)C1,22.5 µM (inactive)
7,N/C(=N\OCc1ccc([N+](=O)[O-])cc1)c1ccccn1,0.67 µM
8,Cc1cc(/C=C2\Sc3ccccc3N2C)cc(C)[n+]1CC1CCCO1 (stereo unspecified),19.2 µM
9,COC(=O)CCC(=O)NC(=S)Nc1sc(C)c(C)c1C(N)=O,> 80 µM (inactive)
10,Cc1ccc2c(c1)COc1c3ccc(C(=O)O)cc3nn1-2,> 80 µM (inactive)
11,CN[C@H]1CCc2cc(OC)c(OC)c(OC)c2-c2ccc(OC)c(=O)cc21,> 80 µM (inactive)
12,CC(C)Oc1ccccc1C1CC(=O)Nc2cc3c(cc21)OCO3 (stereo unspecified),> 80 µM (inactive)
13,COC(=O)c1c(NC(=O)c2ccc([N+](=O)[O-])o2)sc2c1CCN(C(C)C)C2,6.76 µM
14,CCOC(=O)c1[nH]c(C)c(C(=O)c2cc(F)ccc2F)c1C,> 80 µM (inactive)
15,Cc1ccc(N/C(N)=N/c2nc(CSc3nnc(C)s3)cc(=O)[nH]2)c(C)c1,42.1 µM (inactive)
16,CSC1=NC(C(Cl)(Cl)Cl)N=C(c2ccc(C)cc2)N1 (stereo unspecified),> 80 µM (inactive)
17,O=C(Nc1ccc(N2CCN(C(=O)c3ccc(Cl)cc3)CC2)cc1)c1ccc2c(c1)OCCO2,> 80 µM (inactive)
18,CCOCCCNC(=O)c1ccc2c(c1)N=C(CC)c1cc(Br)ccc1S2,5.67 µM
19,O=C(Nc1ccc(Cl)c(S(=O)(=O)N2CCOCC2)c1)c1ccc(OCC2CCCO2)cc1 (stereo unspecified),18.3 µM
20,CCCCOc1ccccc1C1CC(=O)NC2=C1C(=O)CCC2 (stereo unspecified),> 80 µM (inactive)
21,CC(=O)c1c(C)[nH]c(C(=O)OCC(=O)Nc2ccc(C)cc2[N+](=O)[O-])c1C,> 80 µM (inactive)
22,Cc1ccc(S(=O)(=O)NCc2ccncc2)c(C)c1C,> 80 µM (inactive)

row,SMILES,IC50
1,COc1cc(NCCCCCCCN)c2ncccc2c1,21 µM (inactive)
2,N=c1ccn(CC(=O)c2ccc(-c3ccccc3)cc2)cc1,54.5 µM (inactive)
3,COc1ccccc1NC(=O)C1=C(C)Nc2nc3ccccc3n2C1c1cccs1 (stereo unspecified),52.3 µM (inactive)
4,COc1ccc(-n2cc(-c3ccc(C)cc3)[n+]3c2SCC3)cc1,> 80 µM (inactive)
5,CCOC(=O)C1CCN(S(=O)(=O)c2c(Cl)ccc3nonc23)CC1,1.88 µM
6,CC1=Nc2ccccc2/C1=C\c1sc(Nc2ccc(C)cc2)nc1O,> 80 µM (inactive)
7,Cc1cc(C)c(CN2CCN(C(=O)Cn3cnc4c(OCc5ccccc5)ncnc43)CC2)c(C)c1,> 80 µM (inactive)
8,COc1cc(C2c3cc4c(cc3C(OC3OC5COC(c6cccs6)OC5C(O)C3O)C3COC(=O)C23)OCO4)cc(OC)c1O (stereo unspecified),0.68 µM
9,CC(C)(C)c1ccc(C(=O)Nc2ccc(Oc3cccnc3)nc2)cc1,> 80 µM (inactive)
10,Cc1cc(-c2ccc(C(C)C)c(S(=O)(=O)N3CCN(c4ccccc4)CC3)c2)on1,> 80 µM (inactive)
11,COc1ccc(C(=O)N(C)Cc2cnn(Cc3ccccc3)c2)cc1S(=O)(=O)N1CCOCC1,> 80 µM (inactive)
12,CCCCC(=O)NC(c1ccc(Cl)cc1Cl)c1ccc2cccnc2c1O (stereo unspecified),9.87 µM
13,O=C(N/N=C\c1c(O)ccc2ccccc12)c1cncc(Br)c1,4.01 µM
14,Cc1ccc(C(=O)c2cc([N+](=O)[O-])ccc2N2CCCCC2)c(C)c1,> 80 µM (inactive)
15,O=C(COc1ccc2c(-c3ccccc3)cc(=O)oc2c1)Nc1cccnc1,> 80 µM (inactive)
16,c1ccc(-c2cccc(-c3ccccn3)n2)nc1,1.61 µM
17,CN(Cc1ccccc1)C1=CC(=[N+]2CCCC2)CC(C)(C)C1,55.1 µM (inactive)
18,CN(C)S(=O)(=O)c1ccc(Nc2nc(C3CC3)nc3c2nnn3Cc2ccccc2Cl)cc1,> 80 µM (inactive)
19,O=S(=O)(Nc1ccc(F)cc1Cl)c1ccc(-c2cnc(C3CC3)o2)cc1,> 80 µM (inactive)
20,Cc1cc2c(cc1C)C(c1ccccc1OC(C)C)CC(=O)N2 (stereo unspecified),7.61 µM
21,CC(C)(C)c1ccc(C(=O)O/N=C(\N)c2ccccc2)cc1,2.31 µM
22,COc1ccc(/C=C/C(=O)c2cc(F)ccc2OC(=O)c2ccccc2)cc1OC,2.49 µM

row,SMILES,IC50
1,CC(C)c1oc(=O)cc2c1[C@@H](O)[C@H]1OC(=O)[C@@]3(C)C[C@@H](O)[C@@H](O)[C@@]2(C)C13 (stereo partly specified),1.08 µM
2,CCCC(=O)NC(c1ccc(OC)cc1)c1ccc2cccnc2c1O (stereo unspecified),2.83 µM
3,CCOc1ccc(S(=O)(=O)NCc2ccccn2)cc1NC(=O)c1ccccc1,> 80 µM (inactive)
4,CCCOCCOC(=O)c1[nH]c2c(c1C)C(=O)CC(c1cc(OC)ccc1OC)C2 (stereo unspecified),> 80 µM (inactive)
5,Cc1ccc(C(=O)Nc2cnc3ccccc3c2)cc1,0.37 µM
6,COc1ccccc1CNS(=O)(=O)c1ccc(-c2cnc(C3CC3)o2)cc1,31.3 µM (inactive)
7,O=C(Nc1ccc(CSc2ccccc2)cc1)c1ccc(CN2CCOCC2)cc1,> 80 µM (inactive)
8,O=S(=O)(c1ccc2c(c1)OCCO2)N1CCN(c2ncnc3sccc23)CC1,> 80 µM (inactive)
9,CCCCN1/C(=C/c2ccc3ccccc3[n+]2CC)Sc2ccccc21,> 80 µM (inactive)
10,COc1ccc(S(=O)(=O)N2N=C(C)Oc3ccccc3C2=O)cc1,33 µM (inactive)
11,CCCCCCCCn1c2c(c(=N)c3ccccc31)CCC2,3.43 µM
12,CCN(CC)S(=O)(=O)c1ccc(NC(=O)c2ccc(CN3CCOCC3)cc2)cc1,> 80 µM (inactive)
13,O=C(O)c1ccc(-c2ccc(-c3ccccc3)cc2)s1,1.39 µM
14,COc1cc(C(=O)N2CCN(c3cccc(C)c3C)CC2)cc(OC)c1OC,> 80 µM (inactive)
15,CCOc1ccc(N(CC(=O)Nc2ccccc2C)S(=O)(=O)c2c(C)noc2C)cc1,> 80 µM (inactive)
16,CCCc1cc(C(=O)Nc2cc(C)ccc2O)no1,> 80 µM (inactive)
17,CCOC(=O)c1ccc(Nc2nc(N)c3cc(OC)c(OC)cc3n2)cc1,> 80 µM (inactive)
18,CCCCCCCOc1ccc(OC(=O)c2ccncc2)cc1,> 80 µM (inactive)
19,COc1cc(C2C(C#N)=C(N)Oc3cc4c(cc32)OCO4)cc(OC)c1OC (stereo unspecified),34.1 µM (inactive)
20,CCCCCCCCCn1c2c(c(=N)c3c1CCC3)CCCC2,3.4 µM
21,C=C(C)COc1ccc(-c2n[nH]c(C)c2-c2ccc(OC)c(OC)c2)c(O)c1,21.1 µM (inactive)
22,CCOC(=O)c1ccc(NC(=O)Cn2cnc3cc(C)c(C)cc32)cc1,> 80 µM (inactive)

row,SMILES,IC50
1,Cn1cc(/C=N/n2cnc3scc(-c4ccc(Cl)cc4)c3c2=O)c2ccccc21,> 80 µM (inactive)
2,Cc1c(C(=O)N/N=C/c2c(O)ccc3ccccc23)nnn1-c1nonc1N,> 80 µM (inactive)
3,CCOc1cccc(/C=N/Nc2ccc(S(=O)(=O)N(CC)CC)cn2)c1O,21.8 µM (inactive)
4,CCc1ccc2nc(SCC(=O)Nc3ccccc3N3CCOCC3)c(C#N)cc2c1,32.4 µM (inactive)
5,COc1ccc(CCN2C(=O)C3C4C=CC(C3C2=O)C2C(=O)N(CCc3ccc(OC)c(OC)c3)C(=O)C42)cc1OC (stereo unspecified),> 80 µM (inactive)
6,COc1cc(/C=C/c2ccc3cccc(O)c3n2)cc(OC)c1OC,1.59 µM
7,Cn1nc(C(C)(C)C)cc1C(=O)NCc1cc(F)cc2c1OCOC2,> 80 µM (inactive)
8,COc1ccc(OC)c(Nc2cc(-c3ccccc3)nc(N)n2)c1,26.9 µM (inactive)
9,CCOC(=O)/C=C/S(=O)(=O)c1ccc(NC(C)=O)cc1,1.12 µM
10,Cc1cccc(NS(=O)(=O)c2ccc(-c3cnc(C4CC4)o3)cc2)c1C,27.6 µM (inactive)
11,Cc1sc2ncnc(NC3CCN(Cc4ccccc4)CC3)c2c1C,> 80 µM (inactive)
12,CCCCCCCOc1ccc(OC(=O)c2cccnc2)cc1,> 80 µM (inactive)
13,CCOC(=O)c1ccccc1NS(=O)(=O)c1ccc(OCC)cc1,78.3 µM (inactive)
14,COC(=O)C1CN(C#N)N(c2ccc(Cl)cc2)C12c1ccccc1-c1ccccc12 (stereo unspecified),0.9 µM
15,CCC(=O)NC(c1ccc(C)cc1)c1ccc2cccnc2c1O (stereo unspecified),11.6 µM
16,CCOc1ccc(Br)cc1C1=CC(=O)C[C@H](c2ccc(OC)cc2)C1,> 80 µM (inactive)
17,CC(C)(C)c1nnc(N/N=C/c2ccccc2O)n(N)c1=O,12.2 µM
18,C[C@]12CC[C@H]3[C@@H](CC[C@]4(O)C[C@@H](O)CC[C@]34C=O)[C@@]1(O)CC[C@@H]2C1=CC(=O)OC1,68.9 µM (inactive)
19,CCOC(=O)CC1CCCCN1C(=O)c1cc(COc2cccc3cnccc23)on1 (stereo unspecified),6.39 µM
20,CCOC(=O)c1[nH]c(C)c(C(=O)OCC(=O)NC(C)c2ccc(F)cc2)c1C (stereo unspecified),> 80 µM (inactive)
